In patent EP4050002A1, “ANTI-PROLIFERATIVE AGENTS” (First Health Pharmaceuticals B.V., priority 2021, dated 2022):
≈ marks a conversion by molar mass, not a printed value. Where a name gives a salt, the structure may show the parent alone. Read-outs that look alike come from different tables or passages of the source. One block for each compound: values may come before it.

What was measured:
DDX3X = DDX3X (Homo sapiens, UniProt O00571); experiment: nanoDSF enzymatic binding (melting temperature shift); set-up: human DDX3X (residues 132-607, UniProtID: 000571, produced by Proteros GmbH); purchased Proteros GmbH; conditions: DDX3X with AMPPNP 100 µM, no compound
Excerpt: The binding of compounds to DDX3X have been assessed by nanoDSF analysis (NanoTemper Technologies GmbH, Flößergasse 4, 81369 München, Germany). NanoDSF technology is a Differential Scanning Fluorimetry method which measures the protein stability with high resolution without the need of a dye. In particular it measures the changes of the intrinsic tryptophan fluorescence at 330 and 350 nm and it is used to determine the melting temperature of a protein. In the folded state the residues of tryptophan are buried in the hydrophobic core. During denaturation the residues are more exposed and the fluorescence changes in both intensity and wavelength. In a typical experiment, the protein is mixed with the ligand in the reaction buffer and transferred into a capillary. The fluorescence is monitored over temperature gradient between 20 and 95°C with an increment of 2.5°C per minute. The interaction of the ligand to the folded state of the protein shifts the protein melting temperature (Tm) at higher or lower temperature.
Experimental conditions: the experiments were conducted with the device Prometheus NT.48 (NanoTemper Technologies GmbH), the enzyme used was the human DDX3X (residues 132-607, UniProtID: 000571, produced by Proteros GmbH). The assessed compounds were dissolved in pure DMSO adequate to obtain a concentration of compound of 100µM and DMSO 1% (v:v) in final solution. Reaction buffer for DDX3X was 20 mM HEPES, pH 7.5, 0.5 mM TCEP, 500 mM NaCl, 10% (v:v) Glycerin, with a final reaction volume of 10 µL and a final DMSO concentration of 1% (v:v). The reaction was performed in "High sensitivity capillaries" in the range of 20-95°C with a heating rate of 2.5°C/min, with an incubation time of 60 minutes.
• 1) Add appropriate volume of target enzyme in reaction buffer • 2) Add compound(s) in 100% DMSO (1% final DMSO conc.) • 3) Fill the capillary • 4) Measure fluorescence
The assay development was performed with DDX3X protein alone showing a Tm at 54.6 °C.
Binding of compound 5 was assessed with the NanoDSF technique, evaluating the association of the aforementioned compound with APO DDX3X and in presence of a competitor for the ATP binding site, Adenylyl imidodiphosphate (AMPPNP) to assess competition of compound 5 for the DDX3X ATP binding site. Table 6. Final protein and compound concentrations in the various assay setup:
All the measures were performed in triplicate and the average (Mean Tm) and standard deviation (SD) were calculated with the following equations: [formula] and SD = sqrt((∑((Tm−Mean Tm))^2)/(n−1)) [formula]
A change of 5xSD from the 1% DMSO control mean is considered to be a significant Tm change. Test of DDX3X with 1% DMSO was performed to obtain the reference melting temperature of the protein alone. Compounds are considered as binders if the Tm shifts by >= 5 times the standard deviation of the control (protein in the absence of compound). Table 7. DDX3X melting temperatures (Tm) at various experimental conditions

MDAMB231 cell line = experiment: Cytotoxicity, cell count method; format: cell-based, human; conditions: MDAMB231, 72 hours of incubation
Protocol: (§1) The anti-tumor activity of the compounds of the present invention was evaluated as the effect on the proliferation and survival of tumor cells by counting the number of living cells in presence or absence of the compounds ("cell count method"), and as the effect on the viability and metabolic activity of the cells, by using particular substrates that are converted by cellular enzymes into coloured or luminescent products, proportionally with metabolic activity and state of the cell, such as the MTS tetrazolium compound ("MTS method") or luciferin ("ATP-based method") respectively.
(§2) Cells were seeded at 3 to 5 x 10^4 cells/well density depending on cell lines and maintained at 37°C in 5% CO2. After 24 hours cells were treated with ascending concentrations of the investigational compounds and the reference (5-fluoro-Uracyl) in a range from 0 to 100 µM. Compounds were dissolved in DMSO which final concentration in each well was 0.5% v:v. After 72 h of incubation with compounds, the cells were detached with trypsin and re-suspended in 1 ml of complete medium; the cell number was evaluated using a Z2 Coulter Counter ("cell count method") (Attallah and Johnson, A simple highly sensitive methods for the determination of cell viability using an electronic particle analyzer, Coulter counter J. Immunol. Methods. 1981, 41, 155; Leonardi et al., Activated kinase screening identifies the IKBKE oncogene as a positive regulator of autophagy. Autophagy, 2019, 15, 312). Alternatively, after the 72 hours of incubation with compounds, the MTS solution (CellTiter 96® AQueous One Solution Cell Proliferation Assay) is added to each well and absorbance at 490 nm wavelength is read after 2 hours of incubation ("MTS method"). Results in Tables 8-13, 17, 18 were obtained with the cell count method. Results in Tables 14-15 were obtained with the MTS method. Results in Table 16 were obtained with ATP-based method.

A549 Red-FLuc = experiment: Cytotoxicity, cell count method; format: cell-based; conditions: Homo sapiens, 72 hours of incubation
Protocol: as §1, §2

[1] = Kinetic solubility (turbidimetry); format: physicochemical; conditions: for solubility at 2 h: 37 °C, kinetic from dmso stock; for Absorbance at 620nm: 2 h
Protocol: Kinetic solubility was assessed in phosphate buffered saline at pH 7.4 according to the turbidimetry method. Turbidity (precipitation) was measured by absorbance at 620 nm following incubation at 37°C for 2 h. Stock solution of compounds in DMSO were prepared to produce the desired final range of concentrations, then these were added to the buffer to obtain the final test compound concentrations (1 µM, 3 µM, 10 µM, 30 µM, 100 µM), with a final DMSO concentration 1%). Solubility was estimated from the concentration of tested compound that produced a significant increase in absorbance (≥ 0.003 OD at 620 nm) above vehicle control (1% DMSO in water). Miconazole, Reserpine and Propranolol were used as controls.

Sequence of DDX3X (O00571 132-607): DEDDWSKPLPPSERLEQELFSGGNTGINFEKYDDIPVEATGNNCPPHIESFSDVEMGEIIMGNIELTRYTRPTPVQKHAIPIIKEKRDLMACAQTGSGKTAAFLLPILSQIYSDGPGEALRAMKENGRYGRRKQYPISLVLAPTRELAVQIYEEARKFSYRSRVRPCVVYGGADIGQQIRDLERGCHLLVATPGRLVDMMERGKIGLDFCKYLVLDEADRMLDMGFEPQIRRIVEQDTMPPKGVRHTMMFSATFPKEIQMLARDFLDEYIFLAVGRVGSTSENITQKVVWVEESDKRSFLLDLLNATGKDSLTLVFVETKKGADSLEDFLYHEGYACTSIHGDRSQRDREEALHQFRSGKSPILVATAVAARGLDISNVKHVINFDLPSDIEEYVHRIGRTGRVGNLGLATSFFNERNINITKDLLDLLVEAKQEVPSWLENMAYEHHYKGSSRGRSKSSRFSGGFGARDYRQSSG

Compound: Nc1ncnc2c1ncn2[C@@H]1O[C@H](COP(=O)(O)OP(=O)(O)NP(=O)(O)O)[C@@H](O)[C@H]1O [AMPPNP, Adenylyl imidodiphosphate, reference compound]
Tm (DDX3X): 54.7 °C
effect on Tm upon binding (DDX3X): no significant effect on Tm

Compound: CCCCc1noc(-c2ccc(-c3nnc(-c4cccc(Cl)c4F)o3)cc2)n1 [Compound 1, 3-Butyl-5-(4-(5-(3-chloro-2-fluorophenyl)-1,3,4-oxadiazol-2-yl)phenyl)-1,2,4-oxadiazole]
IC50 (MDAMB231 cell line; Homo sapiens, MDA-MB-231, 72 h): 1000 µM

Compound: CCCCc1cn(-c2ccc(-c3nnc(-c4ccccc4)o3)cc2)nn1 [Compound 2, 2-(4-(4-butyl-1H-1,2,3-triazol-1-yl)phenyl)-5-phenyl-1,3,4-oxadiazole]
IC50 (MDAMB231 cell line; Homo sapiens, MDA-MB-231, 72 h): 8.11 µM

Compound: CCCCc1cn(-c2ccc(-c3nnc(-c4ccccc4)o3)cc2)nn1 [Compound 3, 2-(4-(4-butyl-1H-1,2,3-triazol-1-yl)phenyl)-5-phenyl-1,3,4-oxadiazole]
IC50 (MDAMB231 cell line): 6.07 µM

Compound: CCCCc1cn(-c2ccc(-c3nnc(-c4ccccc4C)o3)cc2)nn1 [Compound 4, 2-(4-(4-butyl-1H-1,2,3-triazol-1-yl)phenyl)-5-(o-tolyl)-1,3,4-oxadiazole]
IC50 (MDAMB231 cell line; Homo sapiens, MDA-MB-231, 72 h): 38.9 µM

Compound: CCCCc1cn(-c2ccc(-c3nnc(-c4cc(C(C)C)ccc4C)o3)cc2)nn1 [Compound 6, 2-(4-(4-butyl-1H-1,2,3-triazol-1-yl)phenyl)-5-(5-isopropyl-2-methylphenyl)-1,3,4-oxadiazole]
IC50 (MDAMB231 cell line; Homo sapiens, MDA-MB-231, 72 h): 34.6 µM

Compound: CCCCc1cn(-c2ccc(-c3nnc(-c4cccc5cnccc45)o3)cc2)nn1 [Compound 7, 2-(4-(4-butyl-1H-1,2,3-triazol-1-yl)phenyl)-5-(isoquinolin-5-yl)-1,3,4-oxadiazole]
IC50 (MDAMB231 cell line; Homo sapiens, MDA-MB-231, 72 h): 216 µM

Compound: CCCCc1cn(-c2ccc(-c3nnc(-c4ccccc4OC(F)F)o3)cc2)nn1 [Compound 8, 2-(4-(4-butyl-1H-1,2,3-triazol-1-yl)phenyl)-5-(2-(difluoromethoxy)phenyl)-1,3,4-oxadiazole]
IC50 (MDAMB231 cell line; Homo sapiens, MDA-MB-231, 72 h): 1000 µM

Compound: CCCCc1cn(-c2ccc(-c3nnc(-c4ccccc4F)o3)cc2)nn1 [Compound 9, 2-(4-(4-butyl-1H-1,2,3-triazol-1-yl)phenyl)-5-(2-fluorophenyl)-1,3,4-oxadiazole]
IC50 (MDAMB231 cell line; Homo sapiens, MDA-MB-231, 72 h): 43.1 µM

Compound: CCCCc1cn(-c2ccc(-c3nnc(-c4ccc(C5CCNCC5)cc4)o3)cc2)nn1 [Compound 19, 2-(4-(4-butyl-1H-1,2,3-triazol-1-yl)phenyl)-5-(4-(piperidin-4-yl)phenyl)-1,3,4-oxadiazole hydrochloride]
IC50 (A549 Red-FLuc): 1.7 µM

Compound: CCCCc1cn(-c2ccc(-c3nnc(-c4cccc(OC5CCCC5)c4)o3)cc2)nn1 [Compound 22, 2-(4-(4-butyl-1H-1,2,3-triazol-1-yl)phenyl)-5-(3-(cyclopentyloxy)phenyl)-1,3,4-oxadiazole]
IC50 (A549 Red-FLuc): 3.42 µM

solubility at 2 h ([1]; pH 7.4, aqueous buffer): 10 to 30 µM (≈ 4.16 to 12.5 µg/mL)
Absorbance at 620nm ([1]; 1 µM, pH 7.4): 0.037
Absorbance at 620nm ([1]; 3 µM, pH 7.4): 0.037
Absorbance at 620nm ([1]; 10 µM, pH 7.4): 0.037
Absorbance at 620nm ([1]; 30 µM, pH 7.4): 0.044
Absorbance at 620nm ([1]; 100 µM, pH 7.4): 0.053
Compound: Clc1ccc(COC(Cn2ccnc2)c2ccc(Cl)cc2Cl)c(Cl)c1 (stereo not drawn) [Miconazole]

Compound: CC(C)NCC(O)COc1cccc2ccccc12 (stereo not drawn) [Propranolol]
solubility at 2 h ([1]; aqueous buffer, kinetic solubility, PBS pH 7.4, read-out: solubility): > 100 µM
Absorbance at 620nm ([1]; conc. 1 µM, PBS pH 7.4, 37°C): 0.038
Absorbance at 620nm ([1]; conc. 3 µM, PBS pH 7.4, 37°C): 0.037
Absorbance at 620nm ([1]; conc. 10 µM, PBS pH 7.4, 37°C): 0.039
Absorbance at 620nm ([1]; conc. 30 µM, PBS pH 7.4, 37°C): 0.038
Absorbance at 620nm ([1]; conc. 100 µM, PBS pH 7.4, 37°C): 0.037

solubility at 2 h ([1]; pH 7.4, aqueous buffer): 30 to 100 µM (≈ 18.3 to 60.9 µg/mL)
Absorbance at 620nm ([1]; 1 µM, pH 7.4): 0.037
Absorbance at 620nm ([1]; 3 µM, pH 7.4): 0.037
Absorbance at 620nm ([1]; 10 µM, pH 7.4): 0.037
Absorbance at 620nm ([1]; 30 µM, pH 7.4): 0.040
Absorbance at 620nm ([1]; 100 µM, pH 7.4): 0.058
Compound: COC(=O)[C@H]1[C@H]2C[C@@H]3c4[nH]c5cc(OC)ccc5c4CCN3C[C@H]2C[C@@H](OC(=O)c2cc(OC)c(OC)c(OC)c2)[C@@H]1OC [Reserpine]
